This note sets out measurements from patent US8076487B2, “Pyridone derivative and herbicide” (Kumiai Chemical Industry Co., Ltd., priority 2006, dated 2011).

Assay type in all cases: in vivo
Assay [1] concerns heartshape false pickerelweed (Monochoria vaginalis (Burm.f.) C.Presl). The assay can be described thus: Test Example 1: herbicidal effect by soil application to paddy field. To be noted: paddy field soil application; active ingredient 1,000 g per 1 hectare; wettable powder added dropwise to water surface the day after sowing; examined on the 21st day after application. The method in brief:
(§1)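 Plants were sown in flooded (3 cm) paddy soil and evaluated for herbicidal effect 21 days after soil application in a greenhouse.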

Assay [2] concerns Japanese bulrush (Scirpus juncoides Roxb.). The description is as above. Conditions: paddy field soil application; active ingredient 1,000 g per 1 hectare; wettable powder added dropwise to water surface the day after sowing; examined on the 21st day after application. The essentials: as §1
Assay [3] concerns early watergrass (Echinochloa oryzicola Vasing). Described as above. To be noted: paddy field soil application; active ingredient 1,000 g per 1 hectare; wettable powder added dropwise to water surface the day after sowing; examined on the 21st day after application. The essentials: as §1
For assay [4], the system named is velvetleaf (Abutilon theophrasti medicus). Description: Test Example 3: herbicidal effect by application to upland field (foliage treatment). To be noted: 14th day after application; for herbicidal effect, Velvetleaf: foliage treatment, 1,000 g active ingredient per 1 hectare, greenhouse. The method in brief:
(§2)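 Sow in field soil; grow 2 weeks in greenhouse; spray foliage from above with wettable-powder dilution (1,000 g AI/ha, 1,000 L/ha); return to greenhouse; score effect at day 14 against a standard.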

Assay [5] deals with barnyardgrass (Echinochloa crus-galli (L.) P. Beauv. var. crus-galli). The description is as above. To be noted: 14th day after application; for herbicidal effect, Barnyardgrass: foliage treatment, 1,000 g active ingredient per 1 hectare, greenhouse. The essentials: as §2
The test system of assay [6] is slender amaranth (Amaranthus viridis L.). The assay is described as above. Conditions: 14th day after application; for herbicidal effect, Slender Amaranth: foliage treatment, 1,000 g active ingredient per 1 hectare, greenhouse. The essentials: as §2
The test system of assay [7] is green foxtail (Setaria viridis (L.) P. Beauv.). The assay is described as above. To be noted: 14th day after application; for herbicidal effect, Green Foxtail: foliage treatment, 1,000 g active ingredient per 1 hectare, greenhouse. The method in brief: as §2
Assay [8] relates to velvetleaf (Abutilon theophrasti medicus). Description: Test Example 2: herbicidal effect by soil application to upland field. To be noted: soil surface spray, upland field soil, 1,000 g active ingredient per hectare, 21st day after application. The essentials: (§3)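 Dose was 1,000 g active ingredient per hectare, applied as a wettable powder diluted in water and sprayed evenly over the soil of sown, covered pots at a 1,000 L/ha equivalent. Effect was judged by a standard scale 21 d later under greenhouse conditions.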

Assay [9] has as its system barnyardgrass (Echinochloa crus-galli (L.) P. Beauv. var. crus-galli). The description is as above. To be noted: soil surface spray, upland field soil, 1,000 g active ingredient per hectare, 21st day after application. The method in brief: as §3
Assay [10] has as its system slender amaranth (Amaranthus viridis L.). Described as above. Conditions: soil surface spray, upland field soil, 1,000 g active ingredient per hectare, 21st day after application. The method in brief:
as §3

The subject of assay [11] is green foxtail (Setaria viridis (L.) P. Beauv.). The description is as above. To be noted: soil surface spray, upland field soil, 1,000 g active ingredient per hectare, 21st day after application. The method in brief:
as §3

Where [12] appears, read: foliage treatment, plants grown two weeks, 1,000 g active ingredient per hectare.

In the case of `CC(C)(C)S(=O)(=O)Cn1c(C(F)(F)F)ccc(C(=O)C2=C(O)CCCC2=O)c1=O` [I-56], the “herbicidal effect, Monochoria vaginalis (Burm. f.) C. Presl” value (“herbicidal effect, Monochoria vaginalis” for short) in assay [1] is 5 (90% or more of herbicidal effect and crop phytotoxicity). Besides, in [2], the “herbicidal effect, Scirpus juncoides Roxb.” value was 5 (90% or more of herbicidal effect and crop phytotoxicity). Moreover, the “herbicidal effect, Echinochloa oryzicola Vasing” value in [3] was 5 (90% or more of herbicidal effect and crop phytotoxicity). Further, the “herbicidal effect (index), Velvetleaf” value was 5 (90% or more of herbicidal effect and crop phytotoxicity) in assay [4] (setting [12]); 5 (90% or more of herbicidal effect and crop phytotoxicity) in [8]. Moreover, the “herbicidal effect (index), Barnyardgrass” value was 5 (90% or more of herbicidal effect and crop phytotoxicity) in assay [5] (setting [12]); 4 (70 to less than 90% of herbicidal effect and crop phytotoxicity) in [9]. Also, the “herbicidal effect (index), Slender Amaranth” value in assay [6] (setting [12]) is 5 (90% or more of herbicidal effect and crop phytotoxicity); in assay [10] it was 5 (90% or more of herbicidal effect and crop phytotoxicity). The “herbicidal effect (index), Green Foxtail” value was 5 (90% or more of herbicidal effect and crop phytotoxicity) in assay [7] (setting [12]); 5 (90% or more of herbicidal effect and crop phytotoxicity) in [11].

Take `COCCOCCn1c(C(F)(F)F)ccc(C(=O)C2=C(O)C3CCC(C3)C2=O)c1=O` (stereo not drawn) [III-23]: the “herbicidal effect, Monochoria vaginalis” value in [1] was 5 (90% or more of herbicidal effect and crop phytotoxicity). Besides, the “herbicidal effect, Scirpus juncoides Roxb.” value in assay [2] was 5 (90% or more of herbicidal effect and crop phytotoxicity). The “herbicidal effect, Echinochloa oryzicola Vasing” value in assay [3] was 5 (90% or more of herbicidal effect and crop phytotoxicity). The “herbicidal effect, Velvetleaf” value in [4] was 5 (90% or more of herbicidal effect and crop phytotoxicity). Further, in assay [5], the “herbicidal effect, Barnyardgrass” value is 5 (90% or more of herbicidal effect and crop phytotoxicity). Moreover, in assay [6], the “herbicidal effect, Slender Amaranth” value was 5 (90% or more of herbicidal effect and crop phytotoxicity). The “herbicidal effect, Green Foxtail” value in assay [7] was 5 (90% or more of herbicidal effect and crop phytotoxicity). Moreover, in [8], the “herbicidal effect (index), Velvetleaf” value is 5 (90% or more of herbicidal effect and crop phytotoxicity). In addition, the “herbicidal effect (index), Barnyardgrass” value in assay [9] was 5 (90% or more of herbicidal effect and crop phytotoxicity). For the same molecule, the “herbicidal effect (index), Slender Amaranth” value in assay [10] was 5 (90% or more of herbicidal effect and crop phytotoxicity). Besides, the “herbicidal effect (index), Green Foxtail” value in assay [11] is 5 (90% or more of herbicidal effect and crop phytotoxicity).

Consider `CCCNn1c(C(F)(F)F)ccc(C(=O)c2cnn(C)c2O)c1=O` [IV-148], for which the “herbicidal effect, Monochoria vaginalis” value in assay [1] is 5 (90% or more of herbicidal effect and crop phytotoxicity). The “herbicidal effect, Scirpus juncoides Roxb.” value in assay [2] was 5 (90% or more of herbicidal effect and crop phytotoxicity). Further, the “herbicidal effect, Echinochloa oryzicola Vasing” value in assay [3] is 5 (90% or more of herbicidal effect and crop phytotoxicity). The “herbicidal effect, Velvetleaf” value in assay [4] is 5 (90% or more of herbicidal effect and crop phytotoxicity). In assay [5], the “herbicidal effect, Barnyardgrass” value is 5 (90% or more of herbicidal effect and crop phytotoxicity). Moreover, the “herbicidal effect, Slender Amaranth” value in assay [6] was 5 (90% or more of herbicidal effect and crop phytotoxicity). Besides, the “herbicidal effect, Green Foxtail” value in assay [7] is 5 (90% or more of herbicidal effect and crop phytotoxicity). The “herbicidal effect (index), Velvetleaf” value in assay [8] was 5 (90% or more of herbicidal effect and crop phytotoxicity). The “herbicidal effect (index), Barnyardgrass” value in [9] is 5 (90% or more of herbicidal effect and crop phytotoxicity). Moreover, the “herbicidal effect (index), Slender Amaranth” value in assay [10] was 5 (90% or more of herbicidal effect and crop phytotoxicity). Further, in [11], the “herbicidal effect (index), Green Foxtail” value was 5 (90% or more of herbicidal effect and crop phytotoxicity).
